A value given as a limit tells only on which side of the number the result lay.

For orientation: IC50 means the concentration that gives 50% inhibition.

Chain of human ACSS2 protein (Q9NR19 whole entry): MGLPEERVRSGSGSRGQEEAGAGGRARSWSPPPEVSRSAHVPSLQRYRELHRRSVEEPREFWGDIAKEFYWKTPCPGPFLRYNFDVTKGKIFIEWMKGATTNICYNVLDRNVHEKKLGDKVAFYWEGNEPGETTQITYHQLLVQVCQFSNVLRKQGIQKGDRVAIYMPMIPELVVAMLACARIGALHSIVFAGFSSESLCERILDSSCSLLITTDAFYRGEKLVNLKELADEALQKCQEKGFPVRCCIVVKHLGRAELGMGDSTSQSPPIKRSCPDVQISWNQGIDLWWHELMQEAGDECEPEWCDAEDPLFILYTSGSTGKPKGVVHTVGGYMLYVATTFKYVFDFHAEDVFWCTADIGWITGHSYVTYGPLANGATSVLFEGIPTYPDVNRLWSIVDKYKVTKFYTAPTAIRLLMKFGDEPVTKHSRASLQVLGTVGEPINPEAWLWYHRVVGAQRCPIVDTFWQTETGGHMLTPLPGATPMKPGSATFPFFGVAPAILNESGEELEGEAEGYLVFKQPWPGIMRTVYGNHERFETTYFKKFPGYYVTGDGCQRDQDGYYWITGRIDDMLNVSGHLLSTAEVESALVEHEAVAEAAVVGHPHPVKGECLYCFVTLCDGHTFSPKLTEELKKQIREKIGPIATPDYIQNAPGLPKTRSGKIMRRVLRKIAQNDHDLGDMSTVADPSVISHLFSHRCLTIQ

The assay deals with human ACSS2 protein (Homo sapiens (Human), UniProt Q9NR19). As to the kind of experiment: ACSS2 Cell-Free Activity Assay (Cell-Free IC50). The note with it: 10 nM human ACSS2 protein, 90 minutes at 37 C, pyrophosphatase-coupled, Biomol Green absorbance at 620 nm; read-out: ACSS2 Biochemical IC50. An excerpt:
ACSS2 Cell-Free Activity Assay (Cell-Free IC50)
As to `CCC(F)(F)c1cccc(NC(=O)c2nc(-c3ccc(OC(F)F)c(-c4ccccc4)c3)[nH]c2C)c1` [Compound 218, 2-(6-(difluoromethoxy)-[1,1′-biphenyl]-3-yl)-N-(3-(1,1-difluoropropyl)phenyl)-5-methyl-1 H-imidazole-4-carboxamide], the 50% inhibitory concentration (IC50) is above 100 nM.
Regarding `CCC(C)Oc1ccc(N2N=C(C)C(F)(C(=O)Nc3cccc(C(C)(F)F)c3)C2=O)cc1` (centres unmarked) [Compound 207, N-[3-(1,1-difluoroethyl)phenyl]-4-fluoro-3-methyl-5-oxo-1-(4-sec-butoxyphenyl)pyrazole-4-carboxamide], the half-maximal inhibitory concentration (IC50) was below 1 nM.
Consider “1-(4-(difluoromethoxy)phenyl)-3-methyl-4-(1-((4-(methylsulfonyl)phenyl)amino)-1H-1,2,3-triazol-4-yl)-1H-pyrazol-5(4H)-one [Compound 195]”, for which the IC50 was above 100 nM.
Consider `CC1=NN(c2ccc(OC(F)F)cc2)C(=O)C1(C)C(=O)Nc1cccc(Cl)c1` (centres unmarked) [Compound 167, N-(3-chlorophenyl)-1-[4-(difluoromethoxy)phenyl]-3,4-dimethyl-5-oxo-pyrazole-4-carboxamide], for which the IC50 was above 100 nM.
For the compound `CCC(F)(F)c1cccc(NC(=O)c2nc(C)c(-c3ccc(OC(F)F)cc3)nc2C)c1` [Compound 105, 5-(4-(difluoromethoxy)phenyl)-N-(3-(1,1-difluoropropyl)phenyl)-3,6-dimethylpyrazine-2-carboxamide], the IC50 was above 100 nM.
As to `CCC(F)(F)c1cccc(NC(=O)c2n[nH]c(-c3ccc(OC)cc3)c2Br)c1` [Compound 233], the IC50 is above 100 nM.
Regarding `Cc1nn(-c2ccc(OC(F)F)cc2)c(OC(=O)N2CCC(N3CCCCC3)CC2)c1C(=O)Nc1cccc(C(C)(F)F)c1` [Compound 189, 4-((3-(1,1-difluoroethyl)phenyl)carbamoyl)-1-(4-(difluoromethoxy)phenyl)-3-methyl-1H-pyrazol-5-yl [1,4′-bipiperidine]-1′-carboxylate], the IC50 lay within 1 to 100 nM.
In the case of `CC1=NN(c2ccc(C=C(c3ccccc3)c3ccccc3)c(Br)c2)C(=O)C1C(=O)Nc1cccc(C(C)(F)F)c1` (centres unmarked) [Compound 110], the half-maximal inhibitory concentration (IC50) fell in the range of 1 to 100 nM.
Regarding `Cc1cc(-c2ccccc2)cc(-c2nc(C)cc(C(=O)Nc3cccc(C(C)(F)F)c3)n2)c1` [Compound 219, N-(3-(1,1-difluoroethyl)phenyl)-6-methyl-2-(5-methyl-[1,1’-biphenyl]-3-yl)pyrimidine-4-carboxamide], the 50% inhibitory concentration (IC50) was above 100 nM.
As for `Cc1nc(-c2cc(-n3cc(C(=O)Nc4cccc(C(C)(F)F)c4)c(C)n3)ccc2OC(F)F)co1` [Compound 131, N-(3-(1,1-difluoroethyl)phenyl)-1-(4-(difluoromethoxy)-3-(2-methyloxazol-4-yl)phenyl)-3-methyl-1H-pyrazole-4-carboxamide], the half-inhibitory concentration (IC50) is above 100 nM.
Consider `Cc1cc(C(=O)Nc2cccc(C(C)(F)F)c2)nc(-c2ccc(OC(F)F)cc2)n1` [Compound 147, N-(3-(1,1-difluoroethyl)phenyl)-2-(4-(difluoromethoxy)phenyl)-6-methylpyrimidine-4-carboxamide], for which the IC50 fell in the range of 1 to 100 nM.
Take `CC1=NN(c2ccc(OC(F)(F)F)cc2)C(=O)C1(F)C(=O)Nc1cccc(C(C)(F)F)c1` (centres unmarked) [Compound 203, N-(3-(1,1-difluoroethyl)phenyl)-4-fluoro-3-methyl-5-oxo-1-(4-(trifluoromethoxy)phenyl)-4,5-dihydro-1H-pyrazole-4-carboxamide]: the 50% inhibitory concentration (IC50) is above 100 nM.
To `Cc1nn(-c2ccc(OC(F)F)c(-c3ccccn3)c2)c(C)c1C(=O)Nc1cccc(C(C)(F)F)c1` [Compound 177, N-(3-(1,1-difluoroethyl)phenyl)-1-(4-(difluoromethoxy)-3-(pyridin-2-yl)phenyl)-3,5-dimethyl-1H-pyrazole-4-carboxamide] belongs 1 to 100 nM; to `Cc1nn(-c2ccc(OC(F)F)cc2)c(CO)c1C(=O)Nc1cccc(C(C)(F)F)c1` [Compound 194, N-[3-(1,1-difluoroethyl)phenyl]-1-[4-(difluoromethoxy)phenyl]-5-(hydroxymethyl)-3-methyl-pyrazole-4-carboxamide], 1 to 100 nM.

These data come from patent US12441689B2 (EpiVario, Inc., priority 2019, dated 2025).
